Assay results published in patent publication US8889662B2, “Method to alter sex ratios in avian offspring” (University of Georgia Research Foundation, Inc., priority 2009, dated 2014).

Legend:
[1] = Example 1: plasma CORT radioimmunoassay after injection, zebra finches; assay type: in vivo, zebra finch (Taeniopygia guttata); conditions: female zebra finches
Procedure: This experiment was conducted to determine whether a single injection of CORT at the critical time of sex chromosome segregation is sufficient to skew offspring sex ratios towards females. Female zebra finches were monitored for signs of nest-building and egg-laying. Approximately 19 h following the appearance of the first egg (1 h before sex chromosome segregation), females received one of two treatments: (1) a high dose of CORT (20 ug in 50 ul peanut oil), or (2) a control treatment (50 ul peanut oil). Because oviposition and ovulation are nearly concurrent, ovulation of the second egg took place when the first egg was laid. Thus, the egg that would be affected by our treatment was the third egg in the sequence. Eggs were labeled as they were laid and were collected after 6 d of incubation for molecular sexing analysis as described above. The percentage of females producing male offspring in each group were calculated and compared using chi square analyses. Blood samples were taken from a subset of females 1 h and 2.5 h post injection to verify that the CORT injection did, in fact, elevate circulating maternal CORT concentrations. CORT was quantified using a standard radioimmunoassay and CORT concentrations were log transformed and analyzed using an analysis of variance (ANOVA).

avian species = conditions: long-term silastic implants, literature; cited from earlier work
[2] = chickens, previous work; cited from earlier work
[3] = tested on: white leghorn and brown hyline hens; test: Example 1: offspring sex after a single maternal CORT injection, chickens; assay type: in vivo, chicken; conditions: 2 mg CORT about 19 h after a mid-sequence egg, p=0.002 vs controls, p<0.0001 vs non-injected
Procedure: This experiment was similar to the previous one in that a single injection of CORT was provided at the time of meiotic segregation and the sexes of the resulting eggs were quantified. Laying patterns of female white leghorn and brown hyline hens were monitored and timed. Females that were laying between 1000 and 1200 h EST were included in the experiment. Females were artificially inseminated using pooled semen from 5-10 roosters at two time points prior to treatment.
Approximately 19 h following the appearance of a mid-sequence egg, females received one of three treatments: (1) a high dose of CORT (2 mg in 0.5 ml peanut oil), (2) a control treatment (0.5 ml peanut oil), or (3) no injection treatment. The egg corresponding to the next ovulation event was labeled, collected, and incubated at 37° C. for a period of 7 days to allow for embryonic development. Embryos were separated and sexed using PCR based techniques as described above. The percentage of females producing male offspring in each group were calculated and compared using chi square analyses. […] CORT was quantified using a standard radioimmunoassay and CORT concentrations were log transformed and analyzed using an analysis of variance (ANOVA).

[4] = tested on: Hyline W-36 and Brown layer hens; test: Example 3: ovulation and oviposition rates after injection, laying hens; assay type: in vivo, chicken; conditions: 1.5 mg subcutaneously
Procedure: Injection treatments were administered to hens subcutaneously in the back of the neck five hours prior to the predicted time of ovulation with one of the following treatments: 0.5 ml of control peanut oil (CONT) or 1.5 mg corticosterone dissolved in 0.5 ml of peanut oil (CORT). Ovulated follicles took 24 h to pass through the remainder of the reproductive tract and were collected at oviposition (FIG. 6). Eggs were also collected on the day prior to injections and were considered the unmanipulated group (UN). […] Eggs were incubated for 10 days at 37.5° C. and 58% relative humidity in a Natureform incubator.

[5] = Example 1: plasma CORT radioimmunoassay after injection, chickens; assay type: in vivo, chicken; conditions: hens
Procedure: Approximately 19 h following the appearance of a mid-sequence egg, females received one of three treatments: (1) a high dose of CORT (2 mg in 0.5 ml peanut oil), (2) a control treatment (0.5 ml peanut oil), or (3) no injection treatment. The egg corresponding to the next ovulation event was labeled, collected, and incubated at 37° C. for a period of 7 days to allow for embryonic development. Embryos were separated and sexed using PCR based techniques as described above. The percentage of females producing male offspring in each group were calculated and compared using chi square analyses. Also, as described above, blood samples were taken from a subset of females one hour and four hours after injection to verify that the CORT treatment did, in fact, elevate maternal CORT concentrations at the time of meiotic segregation. CORT was quantified using a standard radioimmunoassay and CORT concentrations were log transformed and analyzed using an analysis of variance (ANOVA).

[6] = tested on: zebra finch (Taeniopygia guttata); test: Example 2: primary sex ratio after hormone injection five hours before ovulation, zebra finches; assay type: in vivo
Procedure: Zebra finch (Taeniopygia guttata) pairs obtained from a breeding colony maintained at The University of Georgia were housed in individual cages and provided feed and water ad libidumn. Birds were kept under a 14 hour (h) light (L):10 h dark (D) light schedule. Egg-laying was monitored daily and eggs marked to record sequence order. Females were injected intraperitoneally after the first or second egg of the clutch was laid with one of three treatments: 20 μg of CORT dissolved in 50 μl peanut oil and 10% ethanol (CORT), 20 μg of progesterone dissolved in […] and 10% ethanol (P), or 50 μl of control peanut oil (C). A fourth set of females received no injection treatment (UN). […] The follicle ovulating 5 hours after injection, was laid approximately 36 hours after injection (FIG. 3). Ovulating follicles exposed to treatments were laid as the 3rd or 4th egg in the sequence (3rd egg if treatment was administered on the day the 1st egg was laid and the 4th egg in the sequence if treatment was administered on the day the 2nd egg was laid). Eggs were allowed to incubate in the nest for 8-12 days prior to collection to allow sufficient embryonic development for DNA extraction and molecular sexing analyses. Occasionally these treatments disrupted the oviposition immediately following the injection. Females that delayed oviposition after treatment were excluded from analysis because it was not possible to determine whether the egg collected the following day was from the ovulation event that occurred immediately following injection or from a delayed oviposition of the follicle ovulated the day prior to injection. Females that delayed oviposition were allowed to complete the clutch after which the treatment was repeated during the next clutch. […] Only 1/10 females treated with progesterone laid successfully. For this reason, progesterone treatments were eliminated from further analyses.
Molecular Sexing. Genomic DNA was extracted from embryonic tissue using a standard salt extraction method (Lambert et al., 2000, Journal of Neuroscience Methods; 95:127-132). Portions of the W-linked avian CHD (CHD-W) on females and its non W-linked homologue (CHD-Z) were amplified using polymerase chain reaction (PCR) with primers P2 and P8 (Griffiths et al., 1998, Mol Ecol; 7:1071-1075). […] The presence of the W chromosome was determined through the visualization of two bands while males were identified when only one band was produced.
Twenty-one target embryos were successfully sexed from control females, 16 from non-injected females, and 18 from CORT treated females. […] Differences in the number of females that produced males was analyzed among treatment groups by performing a logistic regression in StatView (SAS Institute, Cary, N.C. USA) using sex as the response variable (male=1). […]

C[C@]12C[C@H](O)[C@H]3[C@@H](CCC4=CC(=O)CC[C@@]43C)[C@@H]1CC[C@@H]2C(=O)CO [corticosterone]
circulating CORT concentrations compared to controls ([1]; 20 ug CORT in 50 ul peanut oil, within 1 h of injection, p<0.0001): significantly increased circulating CORT concentrations | circulating CORT concentrations compared to controls ([1]; 20 ug CORT, 2.5 h post-injection, p=0.08): remained higher in the CORT treated females 2.5 h post-injection, but not significantly so | offspring sex ratio with long-term CORT elevation (avian species): sex ratios were skewed significantly towards females | duration of elevated CORT concentrations following injection [2]: approximately 90 minutes | likelihood of male embryos compared to controls and non-injected females [3]: significantly more likely to be male | effect on ovulation or oviposition rates [4]: Neither the control nor the corticosterone treatment had an effect on ovulation or oviposition rates | circulating CORT concentrations compared to controls ([5]; 2 mg CORT in 0.5 ml peanut oil, within one hour of injection, p<0.0001): significantly increased circulating CORT concentrations | circulating CORT concentrations compared to controls ([5]; 2 mg CORT, four hours post-injection): This difference disappeared | males produced (primary sex ratio) ([6]; 20 ug intraperitoneally five hours before ovulation, 3rd or 4th egg, control injected 61.9%, uninjected 37.5%): 72% | male embryos produced compared to non-manipulated females (FIG. 5 legend) ([6]; 20 ug, no significant difference from control injected females): produced significantly more male embryos | Proportion male ([6]; eggs laid before treatment by the same treatment group (baseline)): 0.4375 | Proportion male ([6]; target eggs (Treatment), 20 ug): 0.72
